The values that follow come from ChEMBL document CHEMBL1133205, “Synthesis and biological properties of new glycosidic cationic lipids for DNA delivery” (2000).

Active and inactive are the calls of the source. The rule behind the calls is not given here.

Experiment [1] concerns HeLa. The experiment is described as follows: Transfection efficiency of compound in delivering a plasmid bearing the sequence of luciferase gene under the dependence of human cytomegalo virus promoter into HeLa cells was evaluated; Inactive. Format: functional, cell-based.
Experiment [2] has as its system HeLa. The experiment in a line: Transfection efficiency of compound in delivering a plasmid bearing the sequence of luciferase gene as ratio of nM of vector/ug of DNA in HeLa cells. Format: functional, Homo sapiens.
The subject of experiment [3] is HeLa. The experiment in a line: Transfection efficiency of compound in delivering a plasmid bearing the sequence of luciferase gene under the dependence of human cytomegalo virus promoter into HeLa cells was evaluated; Active. The format is functional, cell-based.
In a further experiment the test system is NIH3T3. The experiment is described as follows: Transfection efficiency of compound in delivering a plasmid bearing the sequence of luciferase gene as ratio of nM of vector/ug of DNA in NIH3T3 cells. The format is functional, Mus musculus.

For the compound `CCCCCCCCCCCCCCCCCCN(CCCCCCCCCCCCCCCCCC)C(=O)CCC(=O)OC[C@H]1O[C@H](OC)[C@H](OC(=O)CN)[C@@H](OC(=O)CN)[C@H]1OC(=O)CN`, in the experiment with HeLa [1], the result was inactive.

Consider `CCCCCCCCCCCCCCCCCCN(CCCCCCCCCCCCCCCCCC)C(=O)CCC(=O)OC[C@H]1O[C@H](OC)[C@H](OCCN)[C@@H](OCCN)[C@H]1OCCN`, for which the Activity in the experiment with HeLa [2] is given as 8 (nM of vector) (ug of DNA)-1; in the experiment on NIH3T3, 12 (nM of vector) (ug of DNA)-1. For the same compound, the result in the experiment with HeLa [3] was Active.

For `CCCCCCCCCCCCCCCCCCN(CCCCCCCCCCCCCCCCCC)C(=O)c1ccccc1C(=O)OC[C@H]1O[C@H](OC)[C@H](OC(=O)CN)[C@@H](OC(=O)CN)[C@H]1OC(=O)CN`, in the experiment with HeLa [1], the outcome was inactive.

On to `CCCCCCCCCCCCCCCCCCN(CCCCCCCCCCCCCCCCCC)C(=O)c1ccccc1C(=O)OC[C@H]1O[C@H](OC)[C@H](OCCN)[C@@H](OCCN)[C@H]1OCCN`, for which the Activity in the experiment on HeLa [2] is recorded as 8 (nM of vector) (ug of DNA)-1; with NIH3T3, 12 (nM of vector) (ug of DNA)-1. Moreover, the result with HeLa [3] was Active.
